What was measured:
[1] = Pharmacokinetic study in Balb/c mice following intravenous administration; type: in vivo; settings: male Balb/c mice, IV 2 mg/kg
Experimental: (A) Plasma and brain concentration—time curves of 1015 in male Balb/c mice following intravenous (2 mg/kg) administration (n=4 at each time point). (B) in vivo pharmacokinetic parameters of 1015. B/P: brain/plasma concentration ratio (30 min after IV injection with 2 mg/kg) calculated using 1 g/mL brain density.
Pharmacokinetic study of compound 1015 in Balb/c mice following intravenous administration: Male Balb/c mice (11-12 weeks old, body weight 21.9 to 31.3 g and average body weight across all groups 25.6 g, SD=2.19 g) were used in this study. The animals were randomly assigned to the treatment groups before the pharmacokinetic study; all animals were fasted for 4 h before intravenous injection of 1015 at 2 mg/kg dissolved in Kolliphor HS-physiological saline (20%:80%). Eight time points (5, 15, 30, 60, 120, 240, 480 and 1440 min) were set for this pharmacokinetic study. Each of the time point treatment group included 4 animals. There was also a control group of 2 animals. Mice were injected IV with 2,2,2-tribromoethanol at the dose of 150 mg/kg prior to drawing the blood. Blood collection was performed from the orbital sinus in microtainers containing K2EDTA. Animals were sacrificed by cervical dislocation after blood samples collection. Brain and plasma samples were immediately processed, flash-frozen and stored at −70° C. until subsequent analysis.
Plasma samples (50 μl) were mixed with 200 μl of IS solution. After mixing by pipetting and centrifuging for 4 min at 6000 rpm, 2 μl of each supernatant was injected into LC-MS/MS system. Solution of compound IS-22665-01 (200 ng/ml in acetonitrile-methanol mixture, 1:1, v/v) was used as internal standard (IS) for quantification of 1015 in plasma samples. Brain samples (100 mg±1 mg) were dispersed in 500 μl of IS200(80) using zirconium oxide beads (150 mg±5 mg) in The Bullet Blender® homogenizer for 60 seconds at speed 8. […] Solution of compound IS-22665-01 (200 ng/ml in water-acetonitrile-methanol mixture, 2:4:4, v/v/v) was used as internal standard (IS200(80)) for quantification of 1015 in brain samples. […]

tau [2] = experiment: Tau phosphorylation in human iPSC-derived neurons (Western blot AT8/HT7); type: cell-based; settings: 0.4 μM, 48 h
Experimental: Human iPSC-derived neurons were treated with 1015 (0.4 μM) for 48 h, and the mRNA levels of axin2 (B), neuroD1 (C) and SOX2 (D) were determined by qPCR. All the values are the average of three independent experiments with the SE values indicated by error bars. * P<0.05, ** P<0.01 verse corresponding control. (E) Human iPSC-derived neurons were treated with 1015 (0.4 μM) for 48 h, and the levels of phopspho-tau (p-tau) and total tau were determined by Western blotting with specific antibodies AT8 and HT7, respectively. This experiment is a representative of two such experiments performed with similar data.
NeuroD1, a proneural basic helix-loop-helix (bHLH) transcription factor, plays a critical role in CNS development, and is important for survival of neuronal progenitor cells. There is a TCF/LEF regulatory element in the Neurod1 promoter, and NeuroD1 is a specific target of Wnt/β-catenin signaling. […] In addition, 1015 also induces neural stem cell marker SOX2 expression in human iPSC-derived neurons ([…]). Importantly, 1015 suppresses tau phosphorylation in human iPSC-derived neurons (FIG. 16 at D).

tau [3] = experiment: Tau phosphorylation in N2a cells by Western blotting; type: cell-based; settings: 0.8 and 1.6 μM, 24 h
Experimental: N2a cells were treated with 1011 at the indicated concentrations for 24 h. (A) the levels of β-catenin, tau and tau phosphorylation were examined by Western blotting. (B) the intensity of the tau phosphorylation bands were quantified and normalized to the corresponding signal for total tau. The results represented in the histograms are shown as the mean±SD and are the average of 3 independent experiments. *P<0.05, **P<0.01 versus corresponding control value.
(§1) Western blotting: Cells in 6-well plates were lysed in 0.5 ml of lysis buffer (phosphate-buffered saline containing 1% Triton X-100, 1× Proteinase inhibitor cocktail Complete, and 1 mM PMSF) at 4° C. for 15 min. Equal quantities of protein were subjected to SDS-PAGE under reducing conditions. Following transfer to immobilon-P transfer membrane, successive incubations with a primary antibody, and a horseradish peroxidase-conjugated secondary antibody or IRDye® 680RD goat anti-rabbit/mouse secondary antibodies were carried out for 60-120 min at room temperature. The immunoreactive proteins were then detected using the ECL system or the Odyssey infrared imaging system (LI-COR). Films showing immunoreactive bands were scanned by Hp Scanjet 5590.

GSK3β = GSK3β phosphorylation (Ser9) in N2a cells by Western blotting; type: cell-based; settings: 0.8 μM and 1.6 μM, 24 h
Experimental: N2a cells were treated with 1011 at the indicated concentrations for 24 h. (A) the levels of β-catenin, GSK3β and GSK3β phosphorylation (Ser9) were examined by Western blotting. (B) the intensity of the GSK3β phosphorylation bands were quantified and normalized to the corresponding signal for total GSK3β. The results represented in the histograms are shown as the mean±SD and are the average of 3 independent experiments. *P<0.05, **P<0.01 versus corresponding control value.
as §1

TCF/LEF reporter = settings: with Wnt3A; cited from earlier work
β-catenin = experiment: Cytosolic free β-catenin level in HEK293 cells; type: cell-based
Text: Niclosamide (5-chloro-N-[2-chloro-4-nitrophenyl]-2-hydroxy benzamide), an FDA approved antihelminthic drug, suppresses Wnt/β-catenin signaling by inducing Wnt co-receptor LRP6 degradation in cancer cells. […] CI-994 is an orally active class I histone deacetylase (HDAC) inhibitor [37]. CI-994 increased Wnt reporter activity (FIG. 2B) and cytosolic free β-catenin level in HEK293 cells.

For `Nc1ccccc1NC(=O)c1ccc(C(=O)NCC2CCN2C2CCCC2)cn1` (centres unmarked) [Compound 1015], the “concentration in brain versus plasma” value [1] was “much higher concentration in brain than in plasma”, the “half-life (t1/2), brain versus plasma” value [1] was “much longer in brain than in plasma” and the Kp at 30 min ([1]; mouse, brain/plasma, 30 min after injection, read-out: brain concentration/plasma concentration ratio (B/P)) was 5.6. For the same compound, the tau phosphorylation (tau [2]) was “suppresses”.
For `CC1CCCC(C)N1CCNC(=O)c1ccc(C(=O)Nc2ccccc2N)nc1` (centres unmarked) [Compound 1011], the tau phosphorylation (tau [3]) was “suppressed” and the “GSK3β phosphorylation at Ser9” value (GSK3β) was “significantly enhanced”.
In the case of `CC(=O)Nc1ccc(C(=O)Nc2ccccc2N)cc1` [CI-994, 4-(acetylamino)-N-(2-aminophenyl)benzamide, reference compound], the “activity of the TCF/LEF reporter” value (TCF/LEF reporter) is listed as “able to synergize with Wnt3A to activate” and the “cytosolic free β-catenin level” value (β-catenin) is listed as “increased”.
